{"source": "paper PMC10287695", "about": "“Non-covalent inhibitors of thioredoxin glutathione reductase with schistosomicidal activity in vivo” (Nature Communications, 2023)", "key": {"[1]": {"molecular_target": "T1, TGR (Schistosoma mansoni, UniProt Q962Y6, X597U)", "T1 construct": "made in house", "assay": "Superoxide production (pyrogallol red)", "type": "biochemical, S. mansoni", "conditions": "replicates", "outline": "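TGR (500 nM) with 100 µM NADPH and 20–50 µM inhibitor was preincubated at room temperature for 30 min or 2 h. Samples were then added to 50 µM pyrogallol red with 300 µM NADPH, ± SOD, and A340/A540 were followed for 2 h.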"}, "[2]": {"test_system": "S. mansoni juvenile worms in mice", "assay": "Schistosomicidal efficacy in infected mice, juvenile worms (21 d.p.i.)", "type": "in vivo", "experimental": "(§1) To assess the efficacy of the compounds in vivo against juvenile and adult worms, five female Swiss-Webster mice were randomly assigned for the control and experiment groups using a randomization tool embedded in GraphPad Prism. Mice were percutaneously exposed for 1 h to about 80 S. mansoni cercariae. Three- and six-weeks post infection, respectively, for juvenile and adult worms, mice were treated depending on their weight with formulations of the compounds, while the control mice received only the vehicle. Compounds were formulated with 10% DMSO and 10% Tween-80, and vortexed to obtain a uniform mixture. The mixture was sonicated twice for 5 min each time using a digital ultrasonic cleaner heated to 50 °C. Sodium chloride 0.9% (80% normal saline) was added to the mixture, briefly vortexed and sonicated one more time using the same conditions as previous. The investigators were blinded by which group of mice received a treatment and the vehicle, as injection was done by technicians from the Comparative Research Center of Rush University Medical Center. Using a 26 G, 3/8 in intradermal bevel needle, each mouse was administered intraperitoneally with 100 µl of the formulated compound suspension at 50 mg/kg, 100 mg/kg and 200 mg/kg. Mice treated three weeks post infection for juvenile worms were euthanized three weeks post treatment and mice treated six weeks post infection were euthanized one week post treatment with 0.018 ml of Euthasol and 5.85 mg/ml heparin and perfused. The mesenteric and hepatic portal veins of the mice were carefully scanned under the microscope to extract any remaining S. mansoni adult worms and worm burdens were determined. Egg burden was determined by weighing 50 mg of liver tissue from each of treated and control mice. The liver tissues were digested with 5% KOH at 37 °C overnight and washed twice with PBS. The number of eggs per 50 mg of liver tissue was determined using a Keyence BZ-X800 microscope using the egg autofluorescence."}, "[3]": {"test_system": "S. mansoni adult worms in mice", "assay": "Schistosomicidal efficacy in infected mice, adult worms (42 d.p.i.)", "type": "in vivo", "conditions": "for Egg burden, Treated, individual mice / Worm burden, Treated, individual mice: Adult worm; for Egg burden, Treated, individual mice: eggs per 50 mg liver (Fig. 6); for decrease in egg burden / decrease in worm burden: mice", "experimental": "as §1"}, "[4]": {"molecular_target": "T2, TGR (Schistosoma mansoni, UniProt Q962Y6)", "T2 construct": "made in house", "T2 sequence (Q962Y6 1-598)": "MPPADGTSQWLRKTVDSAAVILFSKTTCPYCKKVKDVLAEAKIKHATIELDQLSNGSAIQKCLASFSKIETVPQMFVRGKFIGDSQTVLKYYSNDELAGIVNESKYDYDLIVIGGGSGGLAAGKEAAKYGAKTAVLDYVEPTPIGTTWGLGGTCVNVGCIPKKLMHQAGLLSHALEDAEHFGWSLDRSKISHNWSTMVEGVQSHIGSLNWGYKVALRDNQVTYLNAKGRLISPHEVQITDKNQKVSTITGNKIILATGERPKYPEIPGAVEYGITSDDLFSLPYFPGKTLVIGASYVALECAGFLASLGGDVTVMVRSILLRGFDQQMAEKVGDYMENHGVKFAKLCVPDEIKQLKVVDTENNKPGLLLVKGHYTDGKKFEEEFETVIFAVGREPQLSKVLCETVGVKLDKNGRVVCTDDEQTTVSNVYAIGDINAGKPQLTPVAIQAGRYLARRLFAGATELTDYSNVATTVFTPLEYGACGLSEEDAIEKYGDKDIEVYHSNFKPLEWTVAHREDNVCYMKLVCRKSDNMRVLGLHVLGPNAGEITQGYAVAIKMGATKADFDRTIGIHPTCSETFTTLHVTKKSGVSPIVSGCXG", "assay": "NADPH dependence of inhibition", "type": "biochemical", "set-up": "unit not given here", "conditions": "panel b, replicates; for Rate, no NADPH: preincubation no NADPH; for Rate, with NADPH: preincubation with NADPH", "experimental": "TGR was incubated at room temperature with inhibitor in the presence or absence of 100 µM NADPH for 15 min. DTNB (3 mM) and NADPH (100 µM) were added, and the reaction was monitored at A412 for 5 min to determine reaction rate. The assay was done in triplicate."}, "[5]": {"molecular_target": "T1, TGR", "assay": "NADPH consumption (oxidase activity)", "type": "biochemical, S. mansoni", "conditions": "replicates", "outline": "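Enzyme (500 nM) preincubated 30 min with compound (TRi-1, Stattic 50 µM; AF 20 µM) and 100 µM NADPH, desalted, then mixed with 100 µM NADPH; NADPH consumption read at 340 nm. Other compounds (50 µM) run without desalting, preincubation 30 min or 2 h.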"}, "[6]": {"molecular_target": "T2, TGR", "assay": "Thermal shift assay (TSA)", "type": "binding", "set-up": "key to Avg. Tm / Tm, replicate 1-3: Tm in °C, from a 25–95 °C melt curve", "conditions": "for Avg. Tm / Tm, replicate 1-3: TGR + 100 µM compound; for Avg. Tm, + 500 µM NADPH / Tm, replicate 1-3, + 500 µM NADPH: TGR + 100 µM compound + 500 µM NADPH; for Tm, replicate 1-3, + 500 µM NADPH / Tm, replicate 1-3: single replicates; for Tm, replicate 1-3, + 500 µM NADPH: in °C (unit assumed)", "experimental": "Samples were prepared by using a final concentration of 0.25 mg/ml TGR diluted in TGR reaction buffer to the desired volume. To evaluate reduced TGR, 500 µM NADPH was added. […] After the preincubation period, 20 µL samples were pipetted into a BioRad un-skirted PCR 96 well plate and sealed with MicroAmp^TM Optical Adhesive film. The plate was then centrifuged for 5 min at 1000 × g. TSA was carried out using a BioRad CFX Connect qPCR instrument with a melt curve setting of 25 − 95 °C, in increments of 0.5 °C/10 seconds. The SYBR green channel was used to detect fluorescence as the wavelength of flavin fluorescence overlaps with that of SYBR green. BioRad CFX Maestro 5.2 was used to analyze TSA data."}, "[7]": {"conditions": "second of the two columns per substance (condition not given)"}, "[8]": {"conditions": "mice, 2 x 100 mg/kg at 21 d.p.i. (juvenile worms)"}, "[9]": {"conditions": "1 x 100 mg/kg, listed as 8VP192"}, "[10]": {"conditions": "2 x 100 mg/kg, listed as 8VP192"}, "[11]": {"conditions": "1 x 100 mg/kg i.p. at 42 d.p.i."}, "[12]": {"conditions": "2 x 100 mg/kg i.p. (1: bid at 42 d.p.i.; 6: at 42 and 45 d.p.i.)"}, "[13]": {"conditions": "1 x 100 mg/kg, listed as 9VP173"}, "[14]": {"conditions": "1 x 200 mg/kg, listed as 9VP173"}, "[15]": {"conditions": "1 x 200 mg/kg i.p. at 42 d.p.i."}}, "note": "Where “and” joins values, the source holds several entries; their conditions need not be identical. Equal values may be shown once.", "data": [{"compound": "C#CCN(Cc1nc(-c2ccccc2)oc1C)[C@@H]1C[C@@H]2C[C@H]([C@H]1C)C2(C)C", "note": "[Compound 6]", "values": [{"measurement": "Superoxide production, Pyrogallol red consumption monitored ΔA540", "setting": "[1]; condition not given", "result": "-0.0001397 and -0.0001399"}, {"measurement": "Superoxide production, Pyrogallol red consumption monitored ΔA540", "setting": "[1]; [7]", "result": "-5.466e-5 and -1.08e-5 and -2.977e-5"}, {"measurement": "Egg burden, Treated, individual mice", "setting": "[2]; 2 x 100 mg/kg, Juvenile worm, eggs per 50 mg liver (Fig. 6), listed as 8VP192", "result": "2214 and 2212 and 2241 and 2153 and 2264"}, {"measurement": "Worm burden, Treated, individual mice", "setting": "[2]; 2 x 100 mg/kg, Juvenile worm, listed as 8VP192", "result": "28 and 25 and 23 and 18 and 26"}, {"measurement": "decrease in egg burden", "setting": "[2]; [8]", "result": "6.8% and 7%"}, {"measurement": "decrease in worm burden", "setting": "[2]; [8]", "result": "15.5% and 16%"}, {"measurement": "Egg burden, Treated, individual mice", "setting": "[3]; [9]", "result": "2001 and 2098 and 2074 and 2073"}, {"measurement": "Worm burden, Treated, individual mice", "setting": "[3]; [9]", "result": "18 and 19 and 11 and 14 and 12"}, {"measurement": "Egg burden, Treated, individual mice", "setting": "[3]; [10]", "result": "2011 and 2073 and 2001 and 2098 and 2074"}, {"measurement": "Worm burden, Treated, individual mice", "setting": "[3]; [10]", "result": "23 and 26 and 25 and 20 and 22"}, {"measurement": "decrease in egg burden", "setting": "[3]; [11]", "result": "3% and 2.8%"}, {"measurement": "decrease in worm burden", "setting": "[3]; [11]", "result": "34% and 33.9%"}, {"measurement": "decrease in egg burden", "setting": "[3]; [12]", "result": "18% and 18.2%"}, {"measurement": "decrease in worm burden", "setting": "[3]; [12]", "result": "38% and 38.39%"}, {"measurement": "Rate, no NADPH", "setting": "[4]", "result": "0.02684 and 0.02786 and 0.03567"}, {"measurement": "Rate, with NADPH", "setting": "[4]", "result": "0.00166 and 0.0006764 and 0.001495"}, {"measurement": "NADPH consumption (rate/ΔOD340)", "setting": "[5]", "result": "-0.0004895 and -0.0006543 and -0.0006565"}]}, {"compound": "Cc1oc(C2CCCCC2)nc1C(=O)N[C@@H]1C[C@@H]2C[C@H]([C@H]1C)C2(C)C", "note": "[Compound 7]", "values": [{"measurement": "Superoxide production, Pyrogallol red consumption monitored ΔA540", "setting": "[1]; condition not given", "result": "-0.0001477 and -0.0001374 and -0.0001423"}, {"measurement": "Superoxide production, Pyrogallol red consumption monitored ΔA540", "setting": "[1]; [7]", "result": "-5.501e-5 and -2.739e-5 and -2.749e-5"}, {"measurement": "Rate, no NADPH", "setting": "[4]", "result": "0.05983 and 0.05966 and 0.05987"}, {"measurement": "Rate, with NADPH", "setting": "[4]", "result": "0.003086 and 0.003742 and 0.002131"}, {"measurement": "NADPH consumption (rate/ΔOD340)", "setting": "[5]", "result": "-0.0008479 and -0.0008204 and -0.0008408"}, {"measurement": "Avg. Tm", "setting": "[6]", "result": 73.6667}, {"measurement": "Avg. Tm, + 500 µM NADPH", "setting": "[6]", "result": 73.5}, {"measurement": "Tm, replicate 1-3, + 500 µM NADPH", "setting": "[6]", "result": 73.5}, {"measurement": "Tm, replicate 1-3", "setting": "[6]", "result": "73.5 (2×) and 74"}]}, {"compound": "C[C@@H]1[C@H]2C[C@@H](C[C@H]1NCc1nc3ccccc3n1C1CCCCCC1)C2(C)C", "note": "[Compound 8]", "values": [{"measurement": "Egg burden, Treated, individual mice", "setting": "[3]; [13]", "result": "2302 and 2373 and 2391 and 2292 and 2275"}, {"measurement": "Worm burden, Treated, individual mice", "setting": "[3]; [13]", "result": "24 and 25 and 21 and 15"}, {"measurement": "Egg burden, Treated, individual mice", "setting": "[3]; [14]", "result": "2221 and 2235 and 2223 and 2217 and 2241"}, {"measurement": "Worm burden, Treated, individual mice", "setting": "[3]; [14]", "result": "24 and 29 and 27 and 28 and 23"}, {"measurement": "decrease in egg burden", "setting": "[3]; [11]", "result": 2.1, "unit": "%"}, {"measurement": "decrease in worm burden", "setting": "[3]; [11]", "result": 13.5, "unit": "%"}, {"measurement": "decrease in egg burden", "setting": "[3]; [15]", "result": "7% and 6.8%"}, {"measurement": "decrease in worm burden", "setting": "[3]; [15]", "result": "19% and 18.9%"}, {"measurement": "Rate, no NADPH", "setting": "[4]", "result": "0.045 and 0.0455"}, {"measurement": "Rate, with NADPH", "setting": "[4]", "result": "0.006 and 0.0015 and 0.0024"}, {"measurement": "Avg. Tm", "setting": "[6]", "result": 73.8333}, {"measurement": "Avg. Tm, + 500 µM NADPH", "setting": "[6]", "result": 70}, {"measurement": "Tm, replicate 1-3, + 500 µM NADPH", "setting": "[6]", "result": "69 and 70 and 71"}, {"measurement": "Tm, replicate 1-3", "setting": "[6]", "result": "73.5 and 74 (2×)"}]}]}
